Measurements published in the supplement of paper PMC10307832.

What was measured:
Experiment in all cases: relative viability (nuclei count vs DMSO), 5 days (fraction); higher = more cells survive
[1] = compound: CN1CCN(c2ccc3nc(-c4c(N)c5c(F)cccc5[nH]c4=O)[nH]c3c2)CC1 [Dovitinib] + NC(=O)Nc1cc(-c2cccc(F)c2)sc1C(=O)N[C@H]1CCCNC1 [AZD7762] (partner 0.2 µM)
Method in brief: (§1)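 Each reported value is a median over duplicate plates. It expresses relative viability: treated-well nuclei count divided by vehicle-well nuclei count. Lung cancer cell lines in 1536-well plates were dosed by pin tool a day after seeding, alone with one drug or with a fixed anchor-drug dose plus five library-drug doses (not always all listed) in √10 steps, and nuclei were counted after 5 days.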

[2] = compound: CN1CCN(c2ccc3nc(-c4c(N)c5c(F)cccc5[nH]c4=O)[nH]c3c2)CC1 [Dovitinib] + CC(C)C[C@H](NC(=O)[C@H](Cc1ccccc1)NC(=O)c1cnccn1)B(O)O [Bortezomib] (partner 0.002 µM)
Method in brief: as §1

[3] = compound: CN1CCN(c2ccc3nc(-c4c(N)c5c(F)cccc5[nH]c4=O)[nH]c3c2)CC1 [Dovitinib] + CS(=O)(=O)N1CCN(Cc2cc3nc(-c4cccc5[nH]ncc45)nc(N4CCOCC4)c3s2)CC1 [Pictilisib] (partner 1 µM)
Method in brief: as §1

[4] = compound: CN1CCN(c2ccc3nc(-c4c(N)c5c(F)cccc5[nH]c4=O)[nH]c3c2)CC1 [Dovitinib] + C[C@]1(O)C[C@@H](c2nc(-c3ccc4ccc(-c5ccccc5)nc4c3)c3c(N)nccn32)C1 [Linsitinib] (partner 1 µM)
Method in brief: as §1

[5] = compound: CN1CCN(c2ccc3nc(-c4c(N)c5c(F)cccc5[nH]c4=O)[nH]c3c2)CC1 [Dovitinib] + O=C(c1cc(Cc2n[nH]c(=O)c3ccccc23)ccc1F)N1CCN(C(=O)C2CC2)CC1 [Olaparib] (partner 8 µM)
Method in brief: as §1

[6] = compound: CN1CCN(c2ccc3nc(-c4c(N)c5c(F)cccc5[nH]c4=O)[nH]c3c2)CC1 [Dovitinib] + C[C@@H](Oc1cc(-c2cnn(C3CCNCC3)c2)cnc1N)c1c(Cl)ccc(F)c1Cl [Crizotinib] (partner 1 µM)
Method in brief: as §1

[7] = compound: CN1CCN(c2ccc3nc(-c4c(N)c5c(F)cccc5[nH]c4=O)[nH]c3c2)CC1 [Dovitinib] + CC1(C)CCC(c2ccc(Cl)cc2)=C(CN2CCN(c3ccc(C(=O)NS(=O)(=O)c4ccc(N[C@H](CCN5CCOCC5)CSc5ccccc5)c(S(=O)(=O)C(F)(F)F)c4)cc3)CC2)C1 [Navitoclax] (partner 0.5 µM)
Method in brief: as §1

[8] = compound: CN1CCN(c2ccc3nc(-c4c(N)c5c(F)cccc5[nH]c4=O)[nH]c3c2)CC1 [Dovitinib] + COc1cc2c(Oc3ccc(NC(=O)C4(C(=O)Nc5ccc(F)cc5)CC4)cc3F)ccnc2cc1OCCCN1CCOCC1 [Foretinib] (partner 0.25 µM)
Method in brief: as §1

[9] = compound: CN1CCN(c2ccc3nc(-c4c(N)c5c(F)cccc5[nH]c4=O)[nH]c3c2)CC1 [Dovitinib] + Cc1nc(NC(=O)N2CCC[C@H]2C(N)=O)sc1-c1ccnc(C(C)(C)C(F)(F)F)c1 [Alpelisib] (partner 2 µM)
Method in brief: as §1

[10] = compound: CN1CCN(c2ccc3nc(-c4c(N)c5c(F)cccc5[nH]c4=O)[nH]c3c2)CC1 [Dovitinib] + CS(=O)(=O)CCNCc1ccc(-c2ccc3ncnc(Nc4ccc(OCc5cccc(F)c5)c(Cl)c4)c3c2)o1 [Lapatinib] (partner 2 µM)
Method in brief: as §1

[11] = compound: CN1CCN(c2ccc3nc(-c4c(N)c5c(F)cccc5[nH]c4=O)[nH]c3c2)CC1 [Dovitinib]
Method in brief: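 Five library-drug doses, separated by factors of √10, were pinned into 1536-well plates holding lung cancer cell lines after an overnight stay at 37 °C. Cells were fixed, permeabilised and Hoechst-stained in one step after 5 days without medium change, then imaged at 4×. Viability compares treated-well with vehicle-well nuclei, counted in MetaXpress, as a median across plates. Passing plates had control CV below 25% and at least one doubling.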

NCI-H1703
relative viability ([1]; first compound 0.02 µM): 0.132
relative viability ([1]; first compound 0.06325 µM): 0.0996
relative viability ([1]; first compound 0.2 µM): 0.125
relative viability ([1]; first compound 0.6325 µM): 0.114
relative viability ([1]; first compound 2 µM): 0.146
relative viability ([2]; first compound 0.02 µM): 0.47
relative viability ([2]; first compound 0.06325 µM): 0.335
relative viability ([2]; first compound 0.2 µM): 0.18
relative viability ([2]; first compound 0.6325 µM): 0.328
relative viability ([2]; first compound 2 µM): 0.291
relative viability ([3]; first compound 0.02 µM): 0.215
relative viability ([3]; first compound 0.06325 µM): 0.24
relative viability ([3]; first compound 0.2 µM): 0.294
relative viability ([3]; first compound 0.6325 µM): 0.232
relative viability ([3]; first compound 2 µM): 0.208
relative viability ([4]; first compound 0.02 µM): 0.853
relative viability ([4]; first compound 0.06325 µM): 0.868
relative viability ([4]; first compound 0.2 µM): 0.671
relative viability ([4]; first compound 0.6325 µM): 0.533
relative viability ([4]; first compound 2 µM): 0.403
relative viability ([5]; first compound 0.02 µM): 0.399
relative viability ([5]; first compound 0.06325 µM): 0.502
relative viability ([5]; first compound 0.2 µM): 0.325
relative viability ([5]; first compound 0.6325 µM): 0.329
relative viability ([5]; first compound 2 µM): 0.24
relative viability ([6]; first compound 0.02 µM): 0.651
relative viability ([6]; first compound 0.06325 µM): 0.836
relative viability ([6]; first compound 0.2 µM): 0.779
relative viability ([6]; first compound 0.6325 µM): 0.547
relative viability ([6]; first compound 2 µM): 0.31
relative viability ([7]; first compound 0.02 µM): 1.18
relative viability ([7]; first compound 0.06325 µM): 1.41
relative viability ([7]; first compound 0.2 µM): 0.84
relative viability ([7]; first compound 0.6325 µM): 0.775
relative viability ([7]; first compound 2 µM): 0.33
relative viability ([8]; first compound 0.02 µM): 0.326
relative viability ([8]; first compound 0.06325 µM): 0.332
relative viability ([8]; first compound 0.2 µM): 0.445
relative viability ([8]; first compound 0.6325 µM): 0.355
relative viability ([8]; first compound 2 µM): 0.328
relative viability ([9]; first compound 0.02 µM): 0.291
relative viability ([9]; first compound 0.06325 µM): 0.418
relative viability ([9]; first compound 0.2 µM): 0.346
relative viability ([9]; first compound 0.6325 µM): 0.264
relative viability ([9]; first compound 2 µM): 0.276
relative viability ([10]; first compound 0.02 µM): 1.17
relative viability ([10]; first compound 0.06325 µM): 0.955
relative viability ([10]; first compound 0.2 µM): 0.788
relative viability ([10]; first compound 0.6325 µM): 0.784
relative viability ([10]; first compound 2 µM): 0.42
relative viability ([11]; 0.02 µM): 1.01
relative viability ([11]; 0.06325 µM): 1.08
relative viability ([11]; 0.2 µM): 0.882
relative viability ([11]; 0.6325 µM): 0.637
relative viability ([11]; 2 µM): 0.541
